Test results reported in the supplement of paper PMC10307832.

Legend:
Test in all cases: relative viability (nuclei count vs DMSO), 5 days (fraction); higher = more cells survive
NCI-H727 = system: NCI-H727
Method in brief: (§1)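 Nuclei were stained with Hoechst during a one-step fixation (final 0.05% Triton X-100, 1% formaldehyde, 1 ug/ml Hoechst) carried out 5 days after dosing, then counted on 4× images. The cells, lung cancer lines in 1536-well plates, had been dosed by pin tool the day after seeding with one drug alone or a fixed anchor-drug dose plus five library-drug doses (not always all listed) in √10 steps. Relative viability is the nuclei count in treated wells divided by that in vehicle wells, and each value is the median of duplicate plates.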

NCI-H522 = system: NCI-H522
Method in brief: as §1

NCI-H647 = system: NCI-H647
Method in brief: as §1

EPLC-272H = system: EPLC-272H
Method in brief: as §1

NCI-H838 = system: NCI-H838
Method in brief: as §1

COR-L23 = system: COR-L23
Method in brief: as §1

NCI-H1792 = system: NCI-H1792
Method in brief: as §1

EKVX = system: EKVX
Method in brief: as §1

NCI-H661 = system: NCI-H661
Method in brief: as §1

NCI-H1651 = system: NCI-H1651
Method in brief: as §1

NCI-H2087 = system: NCI-H2087
Method in brief: as §1

NCI-H1437 = system: NCI-H1437
Method in brief: as §1

NCI-H1650 = system: NCI-H1650
Method in brief: as §1

ABC-1 = system: ABC-1
Method in brief: as §1

UMC-11 = system: UMC-11
Method in brief: as §1

LCLC-103H = system: LCLC-103H
Method in brief: as §1

NCI-H520 = system: NCI-H520
Method in brief: as §1

H3255 = system: H3255
Method in brief: as §1

201T = system: 201T
Method in brief: as §1

NCI-H358 = system: NCI-H358
Method in brief: as §1

HCC-15 = system: HCC-15
Method in brief: as §1

NCI-H1975 = system: NCI-H1975
Method in brief: as §1

COR-L 105 = system: COR-L 105
Method in brief: as §1

HCC-827 = system: HCC-827
Method in brief: as §1

Structure (SMILES): CCCCCCCCCCCC1=C(O)C(=O)C=C(O)C1=O [Embelin] + Cc1nc(Nc2ncc(C(=O)Nc3c(C)cccc3Cl)s2)cc(N2CCN(CCO)CC2)n1 [Dasatinib] (partner 0.075 µM)
- relative viability (NCI-H727; first compound 0.08 µM): 0.318
- relative viability (NCI-H727; first compound 0.8 µM): 0.411
- relative viability (NCI-H727; first compound 2.53 µM): 0.492
- relative viability (NCI-H727; first compound 8 µM): 0.375
- relative viability (NCI-H522; first compound 0.08 µM): 0.849
- relative viability (NCI-H522; first compound 0.8 µM): 0.914
- relative viability (NCI-H522; first compound 2.53 µM): 1.02
- relative viability (NCI-H522; first compound 8 µM): 0.859
- relative viability (NCI-H647; first compound 0.08 µM): 0.214
- relative viability (NCI-H647; first compound 0.8 µM): 0.242
- relative viability (NCI-H647; first compound 2.53 µM): 0.123
- relative viability (NCI-H647; first compound 8 µM): 0.14
- relative viability (EPLC-272H; first compound 0.08 µM): 0.393
- relative viability (EPLC-272H; first compound 0.8 µM): 0.469
- relative viability (EPLC-272H; first compound 2.53 µM): 0.442
- relative viability (EPLC-272H; first compound 8 µM): 0.277
- relative viability (NCI-H838; first compound 0.08 µM): 0.312
- relative viability (NCI-H838; first compound 0.8 µM): 0.316
- relative viability (NCI-H838; first compound 2.53 µM): 0.248
- relative viability (NCI-H838; first compound 8 µM): 0.224
- relative viability (COR-L23; first compound 0.08 µM): 0.486
- relative viability (COR-L23; first compound 0.8 µM): 0.55
- relative viability (COR-L23; first compound 2.53 µM): 0.458
- relative viability (COR-L23; first compound 8 µM): 0.562
- relative viability (NCI-H1792; first compound 0.08 µM): 0.771
- relative viability (NCI-H1792; first compound 0.8 µM): 0.803
- relative viability (NCI-H1792; first compound 2.53 µM): 0.792
- relative viability (NCI-H1792; first compound 8 µM): 0.867
- relative viability (EKVX; first compound 0.08 µM): 0.564
- relative viability (EKVX; first compound 0.8 µM): 0.724
- relative viability (EKVX; first compound 2.53 µM): 0.576
- relative viability (EKVX; first compound 8 µM): 0.555
- relative viability (NCI-H661; first compound 0.08 µM): 0.852
- relative viability (NCI-H661; first compound 0.8 µM): 1.08
- relative viability (NCI-H661; first compound 2.53 µM): 0.99
- relative viability (NCI-H661; first compound 8 µM): 0.703
- relative viability (NCI-H1651; first compound 0.08 µM): 0.388
- relative viability (NCI-H1651; first compound 0.8 µM): 0.508
- relative viability (NCI-H1651; first compound 2.53 µM): 0.438
- relative viability (NCI-H1651; first compound 8 µM): 0.335
- relative viability (NCI-H2087; first compound 0.08 µM): 0.877
- relative viability (NCI-H2087; first compound 0.8 µM): 1.19
- relative viability (NCI-H2087; first compound 2.53 µM): 1.06
- relative viability (NCI-H2087; first compound 8 µM): 0.913
- relative viability (NCI-H1437; first compound 0.08 µM): 0.407
- relative viability (NCI-H1437; first compound 0.8 µM): 0.459
- relative viability (NCI-H1437; first compound 2.53 µM): 0.337
- relative viability (NCI-H1437; first compound 8 µM): 0.275
- relative viability (NCI-H1650; first compound 0.08 µM): 0.348
- relative viability (NCI-H1650; first compound 0.8 µM): 0.408
- relative viability (NCI-H1650; first compound 2.53 µM): 0.337
- relative viability (NCI-H1650; first compound 8 µM): 0.315
- relative viability (ABC-1; first compound 0.08 µM): 0.575
- relative viability (ABC-1; first compound 0.8 µM): 0.657
- relative viability (ABC-1; first compound 2.53 µM): 0.528
- relative viability (ABC-1; first compound 8 µM): 0.53
- relative viability (UMC-11; first compound 0.08 µM): 0.45
- relative viability (UMC-11; first compound 0.8 µM): 0.48
- relative viability (UMC-11; first compound 2.53 µM): 0.519
- relative viability (UMC-11; first compound 8 µM): 0.437
- relative viability (LCLC-103H; first compound 0.08 µM): 0.453
- relative viability (LCLC-103H; first compound 0.8 µM): 0.517
- relative viability (LCLC-103H; first compound 2.53 µM): 0.511
- relative viability (LCLC-103H; first compound 8 µM): 0.405
- relative viability (NCI-H520; first compound 0.08 µM): 0.245
- relative viability (NCI-H520; first compound 0.8 µM): 0.188
- relative viability (NCI-H520; first compound 2.53 µM): 0.307
- relative viability (NCI-H520; first compound 8 µM): 0.132
- relative viability (H3255; first compound 0.08 µM): 0.355
- relative viability (H3255; first compound 0.8 µM): 0.378
- relative viability (H3255; first compound 2.53 µM): 0.298
- relative viability (H3255; first compound 8 µM): 0.456
- relative viability (201T; first compound 0.08 µM): 0.562
- relative viability (201T; first compound 0.8 µM): 0.641
- relative viability (201T; first compound 2.53 µM): 0.519
- relative viability (201T; first compound 8 µM): 0.613
- relative viability (NCI-H358; first compound 0.08 µM): 0.205
- relative viability (NCI-H358; first compound 0.8 µM): 0.136
- relative viability (NCI-H358; first compound 2.53 µM): 0.171
- relative viability (NCI-H358; first compound 8 µM): 0.162
- relative viability (HCC-15; first compound 0.08 µM): 0.592
- relative viability (HCC-15; first compound 0.8 µM): 0.628
- relative viability (HCC-15; first compound 2.53 µM): 0.711
- relative viability (HCC-15; first compound 8 µM): 0.582
- relative viability (NCI-H1975; first compound 0.08 µM): 0.31
- relative viability (NCI-H1975; first compound 0.8 µM): 0.396
- relative viability (NCI-H1975; first compound 2.53 µM): 0.502
- relative viability (NCI-H1975; first compound 8 µM): 0.333
- relative viability (COR-L 105; first compound 0.08 µM): 0.339
- relative viability (COR-L 105; first compound 0.8 µM): 0.544
- relative viability (COR-L 105; first compound 2.53 µM): 0.355
- relative viability (COR-L 105; first compound 8 µM): 0.33
- relative viability (HCC-827; first compound 0.08 µM): 0.333
- relative viability (HCC-827; first compound 0.8 µM): 0.406
- relative viability (HCC-827; first compound 2.53 µM): 0.404
- relative viability (HCC-827; first compound 8 µM): 0.321
